Test results published in patent US9499550B2 (BRISTOL-MYERS SQUIBB COMPANY, priority 2012, dated 2016).
Where two headings read alike, the source gives them in different places.

What was measured:
[1] = test system: HCV genotype 1a (H77 strain) replicon in HUH-7 cells; experiment: HCV replicon luciferase reporter assay, genotype 1a; format: cell-based; details: Hepatitis C virus, Huh-7, 72 h, 3 days incubation
Summary of the method: (§1)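 Replicon inhibition for both genotypes was measured as Renilla luciferase signal (EnduRen, 7.5 μM final, 2 h) after 3-day, 37° C exposure of replicon-bearing HUH-7 cells in 4% FCS DMEM, 0.5% DMSO. The 1b construct carries S1179I; the 1a H77 construct carries P1496L and S2204I. Twenty-point, 3-fold dilutions were fitted four-parametrically for EC50, and CC50 was taken from multiplexed Cell Titer-Blue.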

[2] = test system: HCV genotype 1b (Con1) replicon in HUH-7 cells; experiment: HCV replicon luciferase reporter assay, genotype 1b; format: cell-based; details: Hepatitis C virus, Huh-7, 72 h, 3 days incubation
Summary of the method: as §1

[3] = HCV genotype 1a replicon luciferase, read-out: LE_1a (EC50, range)
[4] = HCV genotype 1b replicon luciferase, read-out: LE_1b (EC50, range)
[5] = HCV genotype 1a replicon luciferase, read-out: LE_1a (EC50)
[6] = HCV genotype 1b replicon luciferase, read-out: LE_1b (EC50)
[7] = HCV genotype 1a replicon luciferase assay, range class, read-out: LE_1a (EC50, range)
[8] = HCV genotype 1b replicon luciferase assay, range class, read-out: LE_1b (EC50, range)

SMILES	EC50 [1, 3] [nM]	EC50 [2, 4] [nM]	EC50 [1, 7] [nM]	EC50 [2, 8] [nM]	also measured
COc1cc2ccnc(O[C@@H]3C[C@H]4C(=O)N[C@]5(C(=O)NS(=O)(=O)C6(CF)CC6)C[C@H]5/C=C\CC[C@@H](C)C[C@@H](C)[C@H](NC(=O)OC(C)(C)C(F)(F)F)C(=O)N4C3)c2cc1OC [Compound 5381, 1,1,1-trifluoro-2-methylpropan-2-yl((2R,6S,7R,9R,13aS,14aR,16aS,Z)-2-((6,7-dimethoxyisoquinolin-1-yl)oxy)-14a-(((1-(fluoromethyl)cyclopropyl)sulfonyl)carbamoyl)-7,9-dimethyl-5,16-dioxo-1,2,3,5,6,7,8,9,10,11,13a,14,14a,15,16,16a-hexadecahydrocyclopropa[e]pyrrolo[1,2-a][1,4]diazacyclopentadecin-6-yl)carbamate]	1.01 to 5	1.01 to 5			
COc1cc2ccnc(O[C@@H]3C[C@H]4C(=O)N[C@]5(C(=O)NS(=O)(=O)C6CC6)C[C@H]5/C=C\CC[C@@H](C)C[C@@H](C)[C@H](NC(=O)OC(C)(C)C(F)(F)F)C(=O)N4C3)c2cc1OC [Compound 5387, 1,1,1-trifluoro-2-methylpropan-2-yl((2R,6S,7R,9R,13aS,14aR,16aS,Z)-14a-((cyclopropylsulfonyl)carbamoyl)-2-((6,7-dimethoxyisoquinolin-1-yl)oxy)-7,9-dimethyl-5,16-dioxo-1,2,3,5,6,7,8,9,10,11,13a,14,14a,15,16,16a-hexadecahydrocyclopropa[e]pyrrolo[1,2-a][1,4]diazacyclopentadecin-6-yl)carbamate]	1.01 to 5	1.01 to 5			
CC[C@@H]1C[C@@H](C)CC/C=C\[C@@H]2C[C@@]2(C(=O)NS(=O)(=O)C2CC2)NC(=O)[C@@H]2C[C@@H](Oc3nccc4c5c(ccc34)N(C)CCO5)CN2C(=O)[C@H]1NC(=O)O[C@@H]1C[C@@H]2C[C@@H]2C1 [Compound 5313, (1R,3r,5 S)-bicyclo[3.1.0]hexan-3-yl((2R,6S,7R,9S,13aS,14aR,16aS,Z)-14a-((cyclopropylsulfonyl)carbamoyl)-7-ethyl-9-methyl-2-((4-methyl-3,4-dihydro-2H-[1,4]oxazino[2,3-f]isoquinolin-7-yl)oxy)-5,16-dioxo-1,2,3,5,6,7,8,9,10,11,13a,14,14a,15,16,16a-hexadecahydrocyclopropa[e]pyrrolo[1,2-a][1,4]diazacyclopentadecin-6-yl)carbamate]	< 5.46	< 5.46			
C[C@@H]1CC/C=C\[C@@H]2C[C@@]2(C(=O)NS(=O)(=O)C2(CF)CC2)NC(=O)[C@@H]2C[C@@H](Oc3nc4c(c5ccccc35)OCCC4)CN2C(=O)[C@@H](NC(=O)OC(C)(C)C)[C@H](C)C1 [Compound 6026, tert-butyl ((2R,6S,7R,9R,13aS,14aR,16aS,Z)-2-((3,4-dihydro-2H-pyrano[3,2-c]isoquinolin-6-yl)oxy)-14a-(((1-(fluoromethyl)cyclopropyl)sulfonyl)carbamoyl)-7,9-dimethyl-5,16-dioxo-1,2,3,5,6,7,8,9,10,11,13a,14,14a,15,16,16a-hexadecahydrocyclopropa[e]pyrrolo[1,2-a][1,4]diazacyclopentadecin-6-yl)carbamate]	< 5.46	< 5.46			EC50 [1, 5]: 1.13 nM; EC50 [2, 6]: 0.7 nM
C[C@@H]1CC/C=C\[C@@H]2C[C@@]2(C(=O)NS(=O)(=O)C2CC2)NC(=O)[C@@H]2C[C@@H](Oc3nccc4c5c(ccc34)N(C)CCO5)CN2C(=O)[C@@H](NC(=O)c2ccc(N(C)C)cc2)[C@H](C)C1 [Compound 5290, (2R,6S,7R,9R,13aS,14aR,16aS,Z)—N-(cyclopropylsulfonyl)-6-(4-(dimethylamino)benzamido)-7,9-dimethyl-2-((4-methyl-3,4-dihydro-2H-[1,4]oxazino[2,3-f]isoquinolin-7-yl)oxy)-5,16-dioxo-1,2,3,5,6,7,8,9,10,11,13a,14,14a,15,16,16a-hexadecahydrocyclopropa[e]pyrrolo[1,2-a][1,4]diazacyclopentadecine-14a-carboxamide]	< 5.46	< 5.46			EC50 [1, 5]: 1.25 nM; EC50 [2, 6]: 0.64 nM
COc1ccc2c(O[C@@H]3C[C@H]4C(=O)N[C@]5(C(=O)NS(=O)(=O)C6(C)CC6)C[C@H]5/C=C\CC[C@H](C)C[C@@H](C)[C@H](NC(=O)O[C@H](C)C(F)(F)F)C(=O)N4C3)nc(-c3ccc(OC(C)C)c(F)c3)cc2c1 [Compound 3075, (R)-1,1,1-trifluoropropan-2-yl ((2R,6S,7R,9S,13aS,14aR,16aS,Z)-2-((3-(3-fluoro-4-isopropoxyphenyl)-6-methoxyisoquinolin-1-yl)oxy)-7,9-dimethyl-14a-(((1-methylcyclopropyl)sulfonyl)carbamoyl)-5,16-dioxo-1,2,3,5,6,7,8,9,10,11,13a,14,14a,15,16,16a-hexadecahydrocyclopropa[e]pyrrolo[1,2-a][1,4]diazacyclopentadecin-6-yl)carbamate]			4.82 to 103	< 5.46	
COc1ccc2c(O[C@@H]3C[C@H]4C(=O)N[C@]5(C(=O)NS(=O)(=O)C6(CF)CC6)C[C@H]5/C=C\CC[C@@H](C)C[C@@H](C)[C@H](NC(=O)OC(C)(C)C(C)(F)F)C(=O)N4C3)nc(C(F)(F)F)cc2c1 [Compound 1171, 3,3-difluoro-2-methylbutan-2-yl((2R,6S,7R,9R,13aS,14aR,16aS,Z)-14a-(((1-(fluoromethyl)cyclopropyl)sulfonyl)carbamoyl)-2-((6-methoxy-3-(trifluoromethyl)isoquinolin-1-yl)oxy)-7,9-dimethyl-5,16-dioxo-1,2,3,5,6,7,8,9,10,11,13a,14,14a,15,16,16a-hexadecahydrocyclopropa[e]pyrrolo[1,2-a][1,4]diazacyclopentadecin-6-yl)carbamate]			< 5.46	< 5.46	
COc1cccc2c(O[C@@H]3C[C@H]4C(=O)N[C@]5(C(=O)NS(=O)(=O)C6(CF)CC6)C[C@H]5/C=C\CC[C@@H](C)C[C@@H](C)[C@H](NC(=O)OC(C)(C)C(F)(F)F)C(=O)N4C3)nccc12 [Compound 3040]					EC50 ([1]; GETYPE1A, HCV genotype 1a replicon luciferase assay, range class, read-out: LE_1a (EC50, range)): < 5.46 nM; EC50 ([2]; GETYPE1B, HCV genotype 1b replicon luciferase assay, range class, read-out: LE_1b (EC50, range)): < 5.46 nM
COc1cc2ccnc(O[C@@H]3C[C@H]4C(=O)N[C@]5(C(=O)NS(=O)(=O)C6(F)CC6)C[C@H]5/C=C\CC[C@H](C)C[C@@H](C)[C@H](NC(=O)OC(C)(C)C(F)(F)F)C(=O)N4C3)c2cc1Cl [Compound 4044]					EC50 ([1]; GETYPE1A, HCV genotype 1a replicon luciferase, read-out: LE_1a (EC50, range)): 4.82 to 103 nM; EC50 ([2]; GETYPE1B, HCV genotype 1b replicon luciferase, read-out: LE_1b (EC50, range)): < 5.46 nM
COc1ccc2c(O[C@@H]3C[C@H]4C(=O)N[C@]5(C(=O)NS(=O)(=O)C6(C)CC6)C[C@H]5/C=C\CC[C@H](C)C[C@@H](C)[C@H](NC(=O)OC(C)(C)C(F)(F)F)C(=O)N4C3)nc(-c3ccc(OC(C)C)c(F)c3)cc2c1 [Compound 3077, 1,1,1-trifluoro-2-methylpropan-2-yl((2R,6S,7R,9S,13aS,14aR,16aS,Z)-2-((3-(3-fluoro-4-isopropoxyphenyl)-6-methoxyisoquinolin-1-yl)oxy)-7,9-dimethyl-14a-(((1-methylcyclopropyl)sulfonyl)carbamoyl)-5,16-dioxo-1,2,3,5,6,7,8,9,10,11,13a,14,14a,15,16,16a-hexadecahydrocyclopropa[e]pyrrolo[1,2-a][1,4]diazacyclopentadecin-6-yl)carbamate]			4.82 to 103	< 5.46	
CC[C@@H]1C[C@H](C)CC/C=C\[C@@H]2C[C@@]2(C(=O)NS(=O)(=O)C2CC2)NC(=O)[C@@H]2C[C@@H](Oc3nccc4c(OC)cccc34)CN2C(=O)[C@H]1NC(=O)OC(C)(C)C(F)(F)F [Compound 3032, 1,1,1-trifluoro-2-methylpropan-2-yl((2R,6S,7R,9R,13aS,14aR,16aS,Z)-14a-((cyclopropylsulfonyl)carbamoyl)-7-ethyl-2-((5-methoxyisoquinolin-1-yl)oxy)-9-methyl-5,16-dioxo-1,2,3,5,6,7,8,9,10,11,13a,14,14a,15,16,16a-hexadecahydrocyclopropa[e]pyrrolo[1,2-a][1,4]diazacyclopentadecin-6-yl)carbamate]			< 5.46	< 5.46	
[2H]C([2H])([2H])C(OC(=O)N[C@@H]1C(=O)N2C[C@H](Oc3nnc(OC)c4ccccc34)C[C@H]2C(=O)N[C@]2(C(=O)NS(=O)(=O)C3(C)CC3)C[C@H]2/C=C\CC[C@H](C)C[C@H]1C)(C([2H])([2H])[2H])C(F)(F)F [Compound 5009]	< 5.46	< 5.46			
COc1nnc(O[C@@H]2C[C@H]3C(=O)N[C@]4(C(=O)NS(=O)(=O)C5(C)CC5)C[C@H]4/C=C\CC[C@@H](C)C[C@@H](C)[C@H](NC(=O)OC(C)(C)C(F)(F)F)C(=O)N3C2)c2ccccc12 [Compound 5008, 1,1,1-trifluoro-2-methylpropan-2-yl((2R,6S,7R,9R,13aS,14aR,16aS,Z)-2-((4-methoxyphthalazin-1-yl)oxy)-7,9-dimethyl-14a-(((1-methylcyclopropyl)sulfonyl)carbamoyl)-5,16-dioxo-1,2,3,5,6,7,8,9,10,11,13a,14,14a,15,16,16a-hexadecahydrocyclopropa[e]pyrrolo[1,2-a][1,4]diazacyclopentadecin-6-yl)carbamate]	< 5.46	< 5.46			
